# According to PubChem BioAssay (NCI):
#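 Dose response: 5 concentrations. Exposure: 48 h. Format: 96-well plates. Endpoint: linear interpolation; highest concentration if not reached. TGI: concentration producing complete growth inhibition.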
# Experiments:
# Assay in all cases: NCI-60 cell line screen, 48 h
# MDA-MB-231 breast = test system: MDA-MB-231 breast
# MCF7 breast = test system: MCF7 breast
# HS 578T breast = test system: HS 578T breast
# OVCAR-5 ovarian = test system: OVCAR-5 ovarian
# PC-3 prostate = test system: PC-3 prostate
# SR leukemia = test system: SR leukemia
# IGROV1 ovarian = test system: IGROV1 ovarian
# OVCAR-4 ovarian = test system: OVCAR-4 ovarian
# NCI-H460 lung = test system: NCI-H460 lung
# COLO 205 colon = test system: COLO 205 colon
# HT29 colon = test system: HT29 colon
# MOLT-4 leukemia = test system: MOLT-4 leukemia
# U251 CNS = test system: U251 CNS
# OVCAR-3 ovarian = test system: OVCAR-3 ovarian
# SNB-75 CNS = test system: SNB-75 CNS
# NCI-H226 lung = test system: NCI-H226 lung
# KM12 colon = test system: KM12 colon
# TK-10 renal = test system: TK-10 renal
# A549 NSCLC = test system: A549 NSCLC
# HOP-62 NSCLC = test system: HOP-62 NSCLC
# M14 melanoma = test system: M14 melanoma
# SN12C renal = test system: SN12C renal
# HCT-15 colon = test system: HCT-15 colon
# UACC-257 melanoma = test system: UACC-257 melanoma
# NCI-H522 lung = test system: NCI-H522 lung
# SNB-19 CNS = test system: SNB-19 CNS
# BT-549 breast = test system: BT-549 breast
# 786-0 renal = test system: 786-0 renal
# UO-31 renal = test system: UO-31 renal
# DU-145 prostate = test system: DU-145 prostate
# CCRF-CEM leukemia = test system: CCRF-CEM leukemia
# SK-MEL-28 melanoma = test system: SK-MEL-28 melanoma
# UACC-62 melanoma = test system: UACC-62 melanoma
# CAKI-1 renal = test system: CAKI-1 renal
# LOX IMVI melanoma = test system: LOX IMVI melanoma
# SW-620 colon = test system: SW-620 colon
# SK-MEL-5 melanoma = test system: SK-MEL-5 melanoma
# MDA-N = test system: MDA-N
# HL-60(TB) leukemia = test system: HL-60(TB) leukemia
# SF-268 CNS = test system: SF-268 CNS
# T-47D breast = test system: T-47D breast
# SF-295 CNS = test system: SF-295 CNS
# SF-539 CNS = test system: SF-539 CNS
# HCT-116 colon = test system: HCT-116 colon
# MALME-3M melanoma = test system: MALME-3M melanoma
# EKVX NSCLC = test system: EKVX NSCLC
# RPMI-8226 leukemia = test system: RPMI-8226 leukemia
# ACHN renal = test system: ACHN renal
# K-562 leukemia = test system: K-562 leukemia
# A498 renal = test system: A498 renal
# HOP-92 NSCLC = test system: HOP-92 NSCLC
# MDA-MB-435 = test system: MDA-MB-435
# OVCAR-8 ovarian = test system: OVCAR-8 ovarian
# NCI-H23 lung = test system: NCI-H23 lung
# NCI/ADR-RES ovarian = test system: NCI/ADR-RES ovarian
# SK-OV-3 ovarian = test system: SK-OV-3 ovarian
# RXF 393 renal = test system: RXF 393 renal
# SK-MEL-2 melanoma = test system: SK-MEL-2 melanoma
compound,measurement,setting,value
COC(=O)C(Cc1c[nH]c2ccccc12)NP(=O)(O)OCC1OC(n2ccc(N)nc2=O)C(O)C1O (stereo unspecified),TGI,MDA-MB-231 breast,> 100 µM
same,TGI,MCF7 breast,> 100 µM
same,TGI,HS 578T breast,> 100 µM
same,TGI,OVCAR-5 ovarian,> 100 µM
same,TGI,PC-3 prostate,> 100 µM
same,TGI,SR leukemia,> 100 µM
same,TGI,IGROV1 ovarian,> 100 µM
same,TGI,OVCAR-4 ovarian,> 100 µM
same,TGI,NCI-H460 lung,> 100 µM
same,TGI,COLO 205 colon,> 100 µM
same,TGI,HT29 colon,> 100 µM
same,TGI,MOLT-4 leukemia,> 100 µM
same,TGI,U251 CNS,> 100 µM
same,TGI,OVCAR-3 ovarian,> 100 µM
same,TGI,SNB-75 CNS,> 100 µM
same,TGI,NCI-H226 lung,> 100 µM
same,TGI,KM12 colon,> 100 µM
same,TGI,TK-10 renal,> 100 µM
same,TGI,A549 NSCLC,> 100 µM
same,TGI,HOP-62 NSCLC,> 100 µM
same,TGI,M14 melanoma,> 100 µM
same,TGI,SN12C renal,> 100 µM
same,TGI,HCT-15 colon,> 100 µM
same,TGI,UACC-257 melanoma,> 100 µM
same,TGI,NCI-H522 lung,> 100 µM
same,TGI,SNB-19 CNS,> 100 µM
same,TGI,BT-549 breast,> 100 µM
same,TGI,786-0 renal,> 100 µM
same,TGI,UO-31 renal,> 100 µM
same,TGI,DU-145 prostate,> 100 µM
same,TGI,CCRF-CEM leukemia,> 100 µM
same,TGI,SK-MEL-28 melanoma,> 100 µM
same,TGI,UACC-62 melanoma,> 100 µM
same,TGI,CAKI-1 renal,> 100 µM
same,TGI,LOX IMVI melanoma,> 100 µM
same,TGI,SW-620 colon,> 100 µM
same,TGI,SK-MEL-5 melanoma,> 100 µM
same,TGI,MDA-N,> 100 µM
same,TGI,HL-60(TB) leukemia,> 100 µM
same,TGI,SF-268 CNS,> 100 µM
same,TGI,T-47D breast,> 100 µM
same,TGI,SF-295 CNS,> 100 µM
same,TGI,SF-539 CNS,> 100 µM
same,TGI,HCT-116 colon,> 100 µM
same,TGI,MALME-3M melanoma,> 100 µM
same,TGI,EKVX NSCLC,> 100 µM
same,TGI,RPMI-8226 leukemia,> 100 µM
same,TGI,ACHN renal,> 100 µM
same,TGI,K-562 leukemia,> 100 µM
same,TGI,A498 renal,> 100 µM
same,TGI,HOP-92 NSCLC,> 100 µM
same,TGI,MDA-MB-435,> 100 µM
same,TGI,OVCAR-8 ovarian,> 100 µM
same,TGI,NCI-H23 lung,> 100 µM
same,TGI,NCI/ADR-RES ovarian,> 100 µM
COc1cc2c(c(O)c1OC)C(=O)C1CCC(=O)N1C2c1cccc2ccccc12 (stereo unspecified),TGI,MDA-MB-231 breast,> 100 µM
same,TGI,MCF7 breast,> 100 µM
same,TGI,HS 578T breast,> 100 µM
same,TGI,OVCAR-5 ovarian,> 100 µM
same,TGI,PC-3 prostate,> 100 µM
same,TGI,SR leukemia,> 100 µM
same,TGI,IGROV1 ovarian,> 100 µM
same,TGI,SK-OV-3 ovarian,> 100 µM
same,TGI,OVCAR-4 ovarian,> 100 µM
same,TGI,NCI-H460 lung,> 100 µM
same,TGI,COLO 205 colon,32.8 µM
same,TGI,HT29 colon,> 100 µM
same,TGI,MOLT-4 leukemia,89.6 µM
same,TGI,U251 CNS,> 100 µM
same,TGI,OVCAR-3 ovarian,> 100 µM
same,TGI,SNB-75 CNS,> 100 µM
same,TGI,NCI-H226 lung,> 100 µM
same,TGI,KM12 colon,> 100 µM
same,TGI,A549 NSCLC,> 100 µM
same,TGI,HOP-62 NSCLC,> 100 µM
same,TGI,M14 melanoma,> 100 µM
same,TGI,SN12C renal,> 100 µM
same,TGI,HCT-15 colon,> 100 µM
same,TGI,UACC-257 melanoma,> 100 µM
same,TGI,NCI-H522 lung,> 100 µM
same,TGI,SNB-19 CNS,> 100 µM
same,TGI,BT-549 breast,> 100 µM
same,TGI,RXF 393 renal,> 100 µM
same,TGI,786-0 renal,> 100 µM
same,TGI,UO-31 renal,> 100 µM
same,TGI,DU-145 prostate,> 100 µM
same,TGI,CCRF-CEM leukemia,77 µM
same,TGI,SK-MEL-28 melanoma,> 100 µM
same,TGI,UACC-62 melanoma,> 100 µM
same,TGI,CAKI-1 renal,> 100 µM
same,TGI,SW-620 colon,> 100 µM
same,TGI,SK-MEL-5 melanoma,> 100 µM
same,TGI,MDA-N,> 100 µM
same,TGI,HL-60(TB) leukemia,63.9 µM
same,TGI,SF-268 CNS,> 100 µM
same,TGI,SK-MEL-2 melanoma,> 100 µM
same,TGI,T-47D breast,> 100 µM
same,TGI,SF-295 CNS,> 100 µM
same,TGI,SF-539 CNS,> 100 µM
same,TGI,HCT-116 colon,> 100 µM
same,TGI,MALME-3M melanoma,> 100 µM
same,TGI,EKVX NSCLC,> 100 µM
same,TGI,RPMI-8226 leukemia,81.2 µM
same,TGI,ACHN renal,> 100 µM
same,TGI,K-562 leukemia,59.2 µM
same,TGI,A498 renal,> 100 µM
same,TGI,HOP-92 NSCLC,89.5 µM
same,TGI,MDA-MB-435,> 100 µM
same,TGI,OVCAR-8 ovarian,> 100 µM
same,TGI,NCI-H23 lung,> 100 µM
same,TGI,NCI/ADR-RES ovarian,> 100 µM
